From ChEMBL document CHEMBL3044584, “4-Sulfenyl-2-carbamoyl-4-isoxazolin-3-ones: biological isostere to 4-chloro-2-carbamoyl-4-isoxazolin-3-ones” (Chem Pharm Bull (Tokyo), 2000) come the findings set out here.

The test system of one data set is Echinochloa oryzicola. Nature of the data set: Pre-emergent herbicidal activity against Echinochloa oryzicola assessed as growth inhibition at 10 g/a after 3 weeks in greenhouse conditions. The class given is functional. To be noted: pre-emergence, 504 h, read-out: GI.
Another data set relates to Lindernia procumbens. The experiment in a line: Pre-emergent herbicidal activity against Lindernia procumbens assessed as growth inhibition at 10 g/a after 3 weeks in greenhouse conditions. The class given is functional. Particulars: pre-emergence, 504 h, read-out: GI.
Data set [1] in a line: Phytotoxicity against Oryza sativa (rice) assessed as growth inhibition at 10 g/a after 3 weeks in greenhouse conditions. The class given is organism-based. Particulars: in vivo, read-out: GI.
The next data set deals with Eleocharis kuroguwai. The experiment in a line: Pre-emergent herbicidal activity against Eleocharis kuroguwai assessed as growth inhibition at 10 g/a after 3 weeks in greenhouse conditions. In kind it is functional. To be noted: pre-emergence, 504 h, read-out: GI.
For data set [2], the system named is Schoenoplectiella juncoides. Nature of the data set: Pre-emergent herbicidal activity against Schoenoplectiella juncoides assessed as growth inhibition at 10 g/a after 3 weeks in greenhouse conditions. The class given is functional. To be noted: pre-emergence, 504 h, read-out: GI.
In the next data set the test system is Cyperus serotinus. Nature of the data set: Pre-emergent herbicidal activity against Cyperus serotinus assessed as growth inhibition at 10 g/a after 3 weeks in greenhouse conditions. In kind it is functional. To be noted: pre-emergence, 504 h, read-out: GI.
A further data set deals with Eleocharis acicularis. The experiment in a line: Pre-emergent herbicidal activity against Eleocharis acicularis assessed as growth inhibition at 10 g/a after 3 weeks in greenhouse conditions. In kind it is functional. To be noted: pre-emergence, 504 h, read-out: GI.

The structures appear in SMILES notation.

In the case of `CCSc1c(C)on(C(=O)N(c2ccc(C)cc2)C(C)C)c1=O`, the inhibition of growth at 1000 g/ha in the data set with Echinochloa oryzicola is above 91%; in the data set on Lindernia procumbens, 31%; with Eleocharis kuroguwai, above 91%; in data set [2] it was above 91%; with Cyperus serotinus, above 91%; in the data set with Eleocharis acicularis, 71%. In data set [1], the inhibition at 504 h is below 10%.

With `CCSc1c(C)on(C(=O)N(c2ccc(Cl)cc2Cl)C(C)C)c1=O`, the inhibition of growth at 1000 g/ha with Echinochloa oryzicola was above 91%; with Lindernia procumbens, 71%; in the data set with Eleocharis kuroguwai it was above 91%; in data set [2], above 91%; in the data set with Cyperus serotinus, above 91%; with Eleocharis acicularis it was 71%. In data set [1], the inhibition at 504 h is below 10%.

For `CCSc1c(C)on(C(=O)N(c2ccc(C#N)cc2)C(C)C)c1=O`, the inhibition of growth at 1000 g/ha in the data set on Echinochloa oryzicola is above 91%; in the data set on Lindernia procumbens it was 71%; in the data set with Eleocharis kuroguwai, above 91%; in data set [2] it was above 91%; with Cyperus serotinus, above 91%; in the data set on Eleocharis acicularis it was 71%. Moreover, the inhibition at 504 h in data set [1] came out at 51%.

Take `CCSc1c(C)on(C(=O)N(c2cccc([N+](=O)[O-])c2)C(C)C)c1=O`: the inhibition of growth at 1000 g/ha with Echinochloa oryzicola is above 91%; in the data set on Lindernia procumbens, 71%; in the data set with Eleocharis kuroguwai it was above 91%; in data set [2] it was above 91%; with Cyperus serotinus, above 91%; in the data set with Eleocharis acicularis, 71%. The inhibition at 504 h in data set [1] was found to be 11%.

Consider `CCSc1c(C)on(C(=O)N(c2cccc(C(F)(F)F)c2)C(C)C)c1=O`, for which the inhibition of growth at 1000 g/ha in the data set on Echinochloa oryzicola was above 91%; in the data set on Lindernia procumbens, 51%; in the data set with Eleocharis kuroguwai, above 91%; in data set [2], 71%; with Cyperus serotinus, above 91%; in the data set with Eleocharis acicularis, 31%. The inhibition at 504 h in data set [1] is below 10%.

Consider `CCCSc1c(C)on(C(=O)N(c2ccc(F)cc2F)C(C)C)c1=O`, for which the inhibition of growth at 1000 g/ha (in the data set with Echinochloa oryzicola; in the data set with Lindernia procumbens; with Eleocharis kuroguwai; in data set [2]; with Cyperus serotinus; in the data set with Eleocharis acicularis) was above 91% throughout. For the same compound, the inhibition at 504 h in data set [1] came out at 11%.

On to `Cc1on(C(=O)N(c2ccc(Cl)cc2)C(C)C)c(=O)c1SC(F)F`, for which the inhibition of growth at 1000 g/ha in the data set with Echinochloa oryzicola is above 91%; in the data set with Lindernia procumbens, 51%; with Eleocharis kuroguwai, above 91%; in data set [2], above 91%; in the data set with Cyperus serotinus, above 91%; with Eleocharis acicularis, above 91%. Moreover, the inhibition at 504 h in data set [1] is 11%.

For the compound `CCSc1c(C)on(C(=O)N(CC)c2ccc(Cl)cc2)c1=O`, the inhibition of growth at 1000 g/ha in the data set on Echinochloa oryzicola is above 91%; in the data set with Lindernia procumbens, 71%; with Eleocharis kuroguwai it was above 91%; in data set [2], above 91%; with Cyperus serotinus it was above 91%; with Eleocharis acicularis, 71%. The inhibition at 504 h in data set [1] is 31%.

For `CCCN(C(=O)n1oc(C)c(SCC)c1=O)c1ccc(Cl)cc1`, the inhibition of growth at 1000 g/ha is above 91% in the data set on Echinochloa oryzicola; above 91% in the data set on Lindernia procumbens; above 91% with Eleocharis kuroguwai; above 91% in data set [2]; above 91% in the data set on Cyperus serotinus; 71% in the data set with Eleocharis acicularis. Moreover, the inhibition at 504 h in data set [1] was determined as 11%.
